Measurements from patent US10183011B2, “Anti-depression compounds” (Board of Regents of the University of Texas System, priority 2009, dated 2019).
Entries after “also recorded” stand apart in the source; their conditions may differ. Like-named read-outs stand apart in the source and are kept apart here.

Columns and labels:
[1] = test system: Ghsr-null and wild-type mice; test: Social interaction test after CSDS; type: in vivo, mouse
Excerpt: FIG. 41. Effects of P7C3 on CSDS-induced depressive-like behavior, as measured by the social interaction test. (a, b) Times spent in the interaction zone with target present for wild-type (a) and Ghsr-null (b) mice. (c, d) Times spent in the corners by wild-type (c) and Ghsr-null (d) mice. Group sizes indicated. *P<0.05, **P<0.01, as compared to respective vehicle-treated control group.
Next, P7C3 and two chemical analogs were employed to investigate whether P7C3-mediated preservation of ventral DG neurogenesis during CSDS might correlate with an antidepressant-like behavioral effect. […] Conversely, the analog P7C3-S184 (Example 178) replaces bromines on the carbazole moiety with chlorines and the aniline moiety with a naphthyl amine, leaving the analog completely devoid of neuroprotective activity.
CSDS was performed similar to methods used previously in the lab (J. C. Chuang et al., Ghrelin mediates stress-induced food-reward behavior in mice. J Clin Invest 121, 2684 (2011)). Test mice were housed individually in large cages paired with a CD1 aggressor mouse, separated by a plastic divider with holes so as to allow sensory contact. For 5 min a day, the plastic divider was removed, exposing test mice to the CD1 mouse. After 5 min of exposure to the CD1 mouse, test mice were again separated and paired with a new CD1 mouse for the remainder of the 24 hours. This process was repeated for 10 days. Following the 5 min sensory contact on the 10th day, mice were separated and singly housed prior to social interaction test. Control mice were housed in equivalent cages with members of the same strain and handled daily. The social interaction test consists of placing mice in an arena with a small cage at one end. The movements of test mice were tracked for 2.5 min in the absence of another mouse, followed by 2.5 min in the presence of a novel CD1 mouse, or the “target”. Ethovision 3.0 software (Noldus, Leesburg, Va.) measured the duration spent in the interaction zone or in the corners. As done previously, data is presented as time spent in the interaction zone when the target is present or time spent in the corners when the target is present (J. C. Chuang et al., Ghrelin mediates stress-induced food-reward behavior in mice. J Clin Invest 121, 2684 (2011)).

H1 histamine receptor = H1 histamine receptor (Homo sapiens, UniProt P35367); test: Binding to the H1 histamine receptor
Description: Example 45 Compound and Dimebon were tested for binding to the H1 histamine receptor.

[2] = Brain and blood levels three weeks after MPTP administration (LC/MS/MS); type: in vivo, mouse (C57BL/6); conditions: 21 days i.p. dosing after MPTP
Description: Data are expressed as mean±SEM. Three animals were tested per group.
C57BL/6 mice treated with MPTP and then dosed IP with compound for 21 days were utilized for pharmacokinetic (PK) analysis of total P7C3, P7C3A20 and Dimebon levels in plasma and brain. In a separate set of experiments designed to test the ability of new P7C3 analogs to cross the blood brain barrier, C57BL/6 mice were dosed IP a single time with compounds at 10 mg/kg. P7C3, P7C3A20 and Dimebon were formulated for administration as described above. Analogs were formulated in 5% Dextrose, pH 7.4, containing 5% DMSO and 10% Cremophor EL with the exception of P7C3-S8 which required 10% DMSO and 20% Cremophor EL dissolved in 5% Dextrose for delivery. Six hours after the final compound dose, animals were given an inhalation overdose of CO2 and whole blood and brain collected. Plasma was prepared from blood and was stored along with the brain tissue at −80° C. until analysis. […] The supernatant was then analyzed by LC/MS/MS. […] The limit of quantitation (LOQ) was defined as the lowest concentration at which back calculation yielded a concentration within 20% of the theoretical value and above the LOD signal. […] Compound levels were monitored by LC/MS/MS using an AB/Sciex (Framingham, Mass.) 3200 Qtrap mass spectrometer coupled to a Shimadzu (Columbia, Md.) Prominence LC.

Sequence of H1 histamine receptor (P35367 whole entry): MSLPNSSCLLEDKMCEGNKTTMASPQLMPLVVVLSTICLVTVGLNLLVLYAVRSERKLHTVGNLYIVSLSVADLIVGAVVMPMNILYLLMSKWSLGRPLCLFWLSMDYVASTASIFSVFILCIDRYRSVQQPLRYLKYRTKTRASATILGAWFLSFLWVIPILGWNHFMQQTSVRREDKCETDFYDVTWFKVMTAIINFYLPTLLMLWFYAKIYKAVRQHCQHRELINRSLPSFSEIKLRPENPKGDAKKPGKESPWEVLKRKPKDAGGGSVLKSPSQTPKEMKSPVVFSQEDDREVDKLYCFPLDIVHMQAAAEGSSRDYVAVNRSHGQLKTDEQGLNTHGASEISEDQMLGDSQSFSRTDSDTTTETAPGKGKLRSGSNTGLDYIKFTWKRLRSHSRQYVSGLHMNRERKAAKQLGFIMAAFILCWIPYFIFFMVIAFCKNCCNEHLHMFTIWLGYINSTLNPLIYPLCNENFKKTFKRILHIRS

Row | SMILES | depression-like behavior, social interaction test ([1]; CSDS-exposed Ghsr-null mice) | depression-like behavior, social interaction test ([1]; CSDS-exposed wild-type mice) | brain accumulation relative to other compound [2] | other results
1 | OC(CNc1ccccc1)Cn1c2ccc(Br)cc2c2cc(Br)ccc21 (stereo not drawn) [Example P7C3] | showed antidepressant efficacy | had no significant effect on depression-like behavior | – | social interaction test performance ([1]; non-CSDS-exposed control mice): Neither P7C3 nor the two tested analogs influenced social interaction test performance
2 | OC(CNc1cccc2ccccc12)Cn1c2ccc(Cl)cc2c2cc(Cl)ccc21 (stereo not drawn) [Example P7C3-S184] | had no effect on stress-induced depressive-like behavior in either genotype | had no effect on stress-induced depressive-like behavior in either genotype | – | –
3 | Cc1ccc2c(c1)c1c(n2CCc2ccc(C)nc2)CCN(C)C1 [Dimebon, 2,3,4,5-Tetrahydro-2,8-dimethyl-5-(2-(6-methyl-3-pyridyl)ethyl)-1H-pyrido(4,3-b)indole, reference compound] | – | – | comparable levels of brain accumulation to P7C3A20; also recorded: equivalent to P7C3 | IC50 (H1 histamine receptor): < 0.1 µM
4 | OC(CNc1ccccc1)Cn1c2ccc(Br)cc2c2cc(Br)ccc21 (stereo not drawn) [Example 45 Compound] | – | – | – | IC50 (H1 histamine receptor; both enantiomers): > 10 µM
5 | COc1cccc(NCC(F)Cn2c3ccc(Br)cc3c3cc(Br)ccc32)c1 (stereo not drawn) [Example P7C3A20, N-(3-(3,6-dibromo-9H-carbazol-9-yl)-2-fluoropropyl)-3-methoxyaniline] | – | – | less than one-tenth the concentration of P7C3; also recorded: about one-tenth | –
